According to US9102675B2, “3-Cyanoaryl-1H-pyrrolo[2,3-B] pyridine derivatives” (MERCK PATENT GMBH, priority 2011, dated 2015):

What was measured:
TBK1 + IKKε = TBK1 + IKKε cell assay: dose response inhibition of phospho-IRF3 @ Ser 386 in MDA-MB-468 cells after poly(I:C) stimulation; type: cell-based; details: Homo sapiens, MDA-MB-468, MDA-MB-468 cells, nuclear phospho-IRF3 Ser386, read-out: TBK1 + IKKε cell assay IC50
Description: Dose response inhibition of phospho-IRF3 @ Ser 386 cell/MDAMB468/INH/PHOS/IMAG/pIRF3
Although TBK1 and IKKε are mainly known as key substances in the innate immune response, recent findings have indicated a role for TBK1 and IKKε in Ras-induced oncogenic transformation. TBK1 was identified as RaIB effector in the Ras-like (RaI)-guanine nucleotide exchange factor (GEF) pathway that is required for Ras-induced transformation. TBK1 directly activates IRF3 which, on phosphorylation, homodimerises and translocates to the nucleus, where it activates processes associated with inflammation, immune regulation, cell survival and proliferation.
This assay has been developed in order to assess the efficacy/potency of TBK1/IKKε inhibitor compounds based on the immunocytochemical detection of nucleus-localised phospho-IRF3, a target directly downstream of TBK1. Treatment with polyinosine-polycytidylic acid (poly(I:C), a synthetic analogue of double-stranded RNA (dsRNA), a molecular pattern associated with viral infection and recognised by Toll-like receptor 3 (TLR3) is used to induce TBK1/IKKε activity and IRF3 phosphorylation at Ser386.
Day 1: MDA-MB-468 cells are detached using HyQ-Tase, counted and sown into a 384-well plate with TC surface and clear bottom in a density of 10,000 cells per well in a total volume of 35 μl of complete medium. Alternatively, the cells are sown directly from frozen glass vials.
Day 2: The cells are pre-treated with inhibitor compounds for 1 h prior to poly(I:C) stimulation. After incubation for 2 h with poly(I:C), the cells are fixed in (para)formaldehyde (PFA) and permeabilised using methanol (MeOH). The cells are then blocked and incubated with an anti-pIRF3 antibody at 4° C. overnight.
Day 3: The primary antibody is washed off, an AlexaFluor488-conjugated secondary antibody is added, the cells are contrast-stained with propidium iodide, followed by image acquisition on an IMX ultra-high content reader.
Plating medium=culture medium: • RPMI 1640, Invitrogen #31870 • 10% of FCS, Invitrogen #10270-106 • 2 mM Glutamax, Invitrogen #35050-038 • 1 mM sodium pyruvate, Invitrogen #11360 • 1% of Pen/Strep • 37° C., 5% of CO2
Plates: 384-well bottom cell culture plates with black/clear bottom, Falcon #35 3962 or Greiner #781090
Subcultivation: HyQ-Tase, Thermo Scientific (HyClone) # SV30030.01
Poly(I:C) (LMW), Invitrogen # tlrl-picw (prepare 20 mg/ml stock solution in sterile PBS, denature 30 min 55° C. in a water bath, slowly cool to RT, store at −20° C. in aliquots)
a 10-point dose-response curve with MSC2119074A-4=BX-795 is included in each experiment
Formaldehyde (methanol-free, 16%, ultrapure EM grade), Polysciences #18814 (storage RT), final conc.: 4%
Goat serum, PAA # B15-035 (storage 4° C., long term −20° C.), final conc.: 10%
BSA (IgG- and protease-free, 30%), US-Biological # A1317 (storage 4° C., long term −20° C.), final conc.: 2%
Tween 20 detergent, Calbiochem #655204 (storage RT), (prepare 10% stock solution in water; final conc.: 0.1%)
Anti-pIRF-3 rabbit mAb, Epitomics #2526-B (storage −20° C.), final conc.: 1:2000 in PBS/2% of BSA
Alexa Fluor goat-anti-rabbit-488, Invitrogen # A11034 or # A11008 (storage 4° C., dark), final conc.: 1:2000 in PBS/2% of BSA/0.1% of Tween
Propidium iodide (PI), Fluka #81845, 1 mg/ml in H2O (storage 4° C., dark), final conc.: 0.2 μg/ml
(1) Sow 10,000 cells/well/35μof complete RPMI +10% FCS into 384-well bottom cell culture plates with black / clear bottom,
(2) Incubate for 2 h at room temperature on the bench, followed by further incubation for 22 h at 37° C., 5% of CO2 and 90% RH. […]

[1] = biological target: T1, TANK binding kinase (TBK1) (Homo sapiens, UniProt Q9UHD2); assay: TBK1 enzyme assay (384-well flashplate kinase assay); type: biochemical; details: 10 μM ATP, 0.6 nM TBK1
T1 sequence (Q9UHD2 1-729): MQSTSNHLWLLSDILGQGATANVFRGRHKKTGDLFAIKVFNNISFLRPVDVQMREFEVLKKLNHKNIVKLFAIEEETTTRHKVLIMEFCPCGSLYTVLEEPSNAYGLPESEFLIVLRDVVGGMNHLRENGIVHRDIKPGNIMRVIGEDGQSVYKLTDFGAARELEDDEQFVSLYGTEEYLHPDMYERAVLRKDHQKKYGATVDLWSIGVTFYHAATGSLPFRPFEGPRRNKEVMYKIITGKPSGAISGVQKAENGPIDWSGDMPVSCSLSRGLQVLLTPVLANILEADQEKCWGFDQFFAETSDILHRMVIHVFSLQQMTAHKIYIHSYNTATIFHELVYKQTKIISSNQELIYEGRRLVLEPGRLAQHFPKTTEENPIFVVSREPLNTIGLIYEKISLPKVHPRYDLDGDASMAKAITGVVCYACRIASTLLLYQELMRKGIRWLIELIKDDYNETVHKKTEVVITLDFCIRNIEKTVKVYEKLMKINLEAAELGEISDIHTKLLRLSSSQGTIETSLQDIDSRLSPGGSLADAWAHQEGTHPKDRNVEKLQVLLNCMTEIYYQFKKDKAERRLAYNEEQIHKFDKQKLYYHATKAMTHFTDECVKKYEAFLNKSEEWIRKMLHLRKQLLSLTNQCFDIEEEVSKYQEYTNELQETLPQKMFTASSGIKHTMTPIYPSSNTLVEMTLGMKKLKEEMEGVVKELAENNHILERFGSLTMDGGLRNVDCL
Method: Test for the Inhibition of TBK1
The kinase assay is performed as 384-well flashplate assay (for example for Topcount measurement).
0.6 nM TANK binding kinase (TBK1), 800 nM biotinylated MELK-derived peptide (biotin-Ah-Ah-[…]) and 10 μM ATP (spiked with 0.25 μCi of ^33P-ATP/well) are incubated at 30° C. for 120 min in a total volume of 50 μl (10 mM MOPS, 10 mM Mg acetate, 0.1 mM EGTA, 1 mM DTT, 0.02% of Brij35, 0.1% of BSA, pH 7.5) with or without test compound. The reaction is stopped with 25 μl of 200 mM EDTA. After 30 min at room temperature, the liquid is removed, and each well is washed three times with 100 μl of 0.9% sodium chloride solution. Non-specific reaction is measured in the presence of 100 nM staurosporine. The radioactivity is measured in a Topcount (PerkinElmer). The results (for example IC50 values) are calculated using program tools provided by the IT Department (for example Assay-Explorer, Symyx). Cell Test

IC50 (TBK1 + IKKε) [nM]	IC50 [1] [nM]	Compound
< 300	< 300	N#Cc1cc(-c2c[nH]c3ncc(-c4cnn(C5COC5)c4)cc23)ccc1OC1CCOCC1 [Compound A26, 5-[5-[1-(Oxetan-3-yl)pyrazol-4-yl]-1H-pyrrolo[2,3-b]-pyridin-3-yl]-2-tetrahydropyran-4-yloxybenzonitrile]
300 to 3000	< 300	N#Cc1cc(-c2c[nH]c3ncc(-c4cn(CCN5CCCC5)nn4)cc23)ccc1OC1CCOCC1 [Compound A27, 5-[5-[1-(2-Pyrrolidin-1-ylethyl)triazol-4-yl]-1H-pyrrolo-[2,3-b]pyridin-3-yl]-2-tetrahydropyran-4-yloxybenzo-nitrile]
300 to 3000	< 300	Cn1cc(-c2cnc3[nH]cc(-c4cnc(OC5CCOCC5)c(C#N)c4)c3c2)cn1 [Compound A30, 5-[5-(1-Methylpyrazol-4-yl)-1H-pyrrolo[2,3-b]pyridin-3-yl]-2-tetrahydropyran-4-yloxypyridine-3-carbonitrile]
3000 to 50000	< 300	Cn1cc(-c2cnc3[nH]cc(-c4ccc(OC5COC5)c(C#N)c4)c3c2)cn1 [Compound A31, 5-[5-(1-methyl-1H-pyrazol-4-yl)-1H-pyrrolo[2,3-b]pyridin-3-yl]-2-(oxetan-3-yloxy)benzonitrile]
300 to 3000	< 300	Cn1cc(-c2cnc3[nH]cc(-c4ccc(OCC5(C)COC5)c(C#N)c4)c3c2)cn1 [Compound A32, 2-(3-methyloxetan-3-ylmethoxy)-5-[5-(1-methyl-1H-pyrazol-4-yl)-1H-pyrrolo[2,3-b]pyridin-3-yl]benzonitrile]
300 to 3000	< 300	N#Cc1cc(-c2c[nH]c3ncc(-c4cnn(CCN5CCCC5)c4)cc23)cnc1OC1CCOCC1 [Compound A33, 5-{5-[1-(2-Pyrrolidin-1-ylethyl)-1H-pyrazol-4-yl]-1H-pyrrolo[2,3-b]pyridin-3-yl}-2-(tetrahydropyran-4-yl-oxy)nicotinonitrile]
3000 to 50000	< 300	N#Cc1cc(-c2c[nH]c3ncc(-c4cnn(C5COC5)c4)cc23)ccc1OC1COC1 [Compound A34, 2-(oxetan-3-yloxy)-5-[5-(1-oxetan-3-yl-1H-pyrazol-4-yl)-1H-pyrrolo-[2,3-b]pyridin-3-yl]benzonitrile]
300 to 3000	< 300	CC1(COc2ccc(-c3c[nH]c4ncc(-c5cnn(C6COC6)c5)cc34)cc2C#N)COC1 [Compound A35, 2-(3-methyloxetan-3-ylmethoxy)-5-[5-(1-oxetan-3-yl-1H-pyrazol-4-yl)-1H-pyrrolo[2,3-b]-pyridin-3-yl]benzonitrile]
3000 to 50000	< 300	CC1(COc2ccc(-c3c[nH]c4ncc(-c5cn[nH]c5)cc34)cc2C#N)COC1 [Compound A36, 2-(3-methyloxetan-3-ylmethoxy)-5-[5-(1H-pyrazol-4-yl)-1H-pyrrolo[2,3-b]pyridin-3-yl]benzonitrile]
3000 to 50000	< 300	N#Cc1cc(-c2c[nH]c3ncc(-c4cnn(C5COC5)c4)cc23)cnc1OC1CCOCC1 [Compound A37, 5-[5-(1-Oxetan-3-yl-1H-pyrazol-4-yl)-1H-pyrrolo-[2,3-b]pyridin-3-yl]-2-(tetrahydropyran-4-yloxy)-nicotinonitrile]
300 to 3000	< 300	COCCn1cc(-c2cnc3[nH]cc(-c4cnc(OC5CCOCC5)c(C#N)c4)c3c2)cn1 [Compound A38, 5-{5-[1-(2-Methoxyethyl)-1H-pyrazol-4-yl]-1H-pyrrolo-[2,3-b]pyridin-3-yl}-2-(tetrahydropyran-4-yloxy)-nicotinonitrile]
